Data as given in article PMC7394103 (Frontiers in Pharmacology, 2020).

Experiments:
LN cells from CIA mice = assay: CII-induced cytokine production by LN cells from treated CIA mice; format: in vivo; conditions: 30 mg/kg; for IL-10 production by LN cells / proinflammatory cytokines (IL-1β, IL-5, IL-6, IL-17A, TNF, GM-CSF, RANKL) by LN cells: cells cultured 72 h with CII, vs saline
Procedure: At the end of the study (day 44), we isolated the axillary, inguinal, and popliteal LN and purified mononuclear cells from the LN. These cells were cultured in 6-well plates (5 × 10^6 cells/ml) without or with 50 μg/ml CII for 3 days in RPMI-1640 medium supplemented with 10% of fetal bovine serum (FBS) (Invitrogen, Carlsbad, CA, USA), 2 mM l-glutamine, 100 U/ml penicillin, 100 μg/ml streptomycin, 1 mM sodium pyruvate, and 0.1 mM nonessential amino acids ([Kochetkova et al., 2008]). The levels of cytokines, including tumor necrosis factor (TNF), granulocyte-macrophage colony-stimulating factor (GM-CSF), IL-1β, IL-5, IL-6, IL-10, IL-17A, and receptor activator of nuclear factor-κB ligand (RANKL) were measured in LN culture supernatants using ELISA kits (BD Biosciences, San Jose, CA, USA) for mouse cytokines.

JNK1 = target: JNK1; set-up: method as in Schepetkin et al., 2019; conditions: previously reported binding affinity; ref Schepetkin et al., 2019; cited from earlier work
JNK3 = target: JNK3; set-up: method as in Schepetkin et al., 2019; conditions: previously reported binding affinity; ref Schepetkin et al., 2019; cited from earlier work

Row | Compound | IL-10 production by LN cells (LN cells from CIA mice) | proinflammatory cytokines (IL-1β, IL-5, IL-6, IL-17A, TNF, GM-CSF, RANKL) by LN cells (LN cells from CIA mice) | Kd (JNK1) [µM] | JNK3 Kd (JNK3) | IL-17A, GM-CSF and RANKL production by LN cells (LN cells from CIA mice; compared to mice treated with TRYP)
1 | O=C1c2ccccc2-n2c1nc1ccccc1c2=O [TRYP, indolo[2,1-b]quinazolin-6,12-dione] | higher | significantly reduced | 23 | No binding | –
2 | O=c1c2ccccc2nc2n1-c1ccccc1/C2=N/O [TRYP-Ox, tryptanthrin-6-oxime] | higher | significantly reduced | – | – | significantly lower
